Publication PMC10150354, “Linearization of the Brevicidine and Laterocidine Lipopeptides Yields Analogues That Retain Full Antibacterial Activity” (Journal of Medicinal Chemistry, 2023)
In brackets after ≈: the same amount, converted by molar mass. Where a SMILES comes first, the peptide text is derived from it. [ ]: non-standard residue; d: D form. The star is where a group is joined. ξ: configuration not given here. Octanoyl(7-Me) = CC(C)CCCCCC(=O)*; Hexanoyl(4ξ-Me) = CCC(C)CCC(=O)*; dOrn = NCCC[C@@H](N)C(=O)O; Orn = NCCC[C@H](N)C(=O)O; Dap = NC[C@H](N)C(=O)O; Alloc = C=CCOC(=O)*

Legend:
E. coli (MCR-1) = type: cell-based, Escherichia coli; settings: microbroth dilution per CLSI, MHB, 18 h at 37 °C, visual inspection, three technical replicates, E. coli 25922 carrying mcr-1
Method in brief: (§1)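 CLSI broth microdilution in MHB, polypropylene plates; log-phase bacteria (OD600 ~0.5, grown in TSB, with kanamycin for the E. coli ATCC 25922 MCR-1 strain) added at 2 × 10^5 CFU/mL. Read visually after 18 h at 37 °C with shaking; MIC = lowest concentration preventing visible growth, three technical replicates.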

E. coli ATCC 25922 = type: cell-based, Escherichia coli; settings: for Antibacterial activity (MIC) E. coli ATCC 25922: microbroth dilution per CLSI, MHB, 18 h at 37 °C, visual inspection, three technical replicates; for MIC (µg/mL) against E. coli (ATCC 25922): (Supplement 2)
Method in brief: as §1

K. pneumoniae ATCC 13883 = type: cell-based, Klebsiella pneumoniae; settings: microbroth dilution per CLSI, MHB, 18 h at 37 °C, visual inspection, three technical replicates
Method in brief: as §1

A. baumannii ATCC 17961 = type: cell-based, Acinetobacter baumannii; settings: microbroth dilution per CLSI, MHB, 18 h at 37 °C, visual inspection, three technical replicates
Method in brief: as §1

P. aeruginosa PAO1 = type: cell-based, Pseudomonas aeruginosa; settings: microbroth dilution per CLSI, MHB, 18 h at 37 °C, visual inspection, three technical replicates
Method in brief: as §1

S. aureus USA300 = type: cell-based, Staphylococcus aureus; settings: microbroth dilution per CLSI, MHB, 18 h at 37 °C, visual inspection, three technical replicates
Method in brief: as §1

[1] = test system: panel of Gram-negative and Gram-positive ESKAPE pathogens; type: cell-based; settings: for fold improvement in activity with respect to C-terminal acids 4 and 5: MIC of C-terminal amide vs C-terminal acid; for fold reduction in activity compared to parent peptides: MIC vs brevicidine / laterocidine; for MIC values, summarised over strains: against most strains of the panel
Experimental: Linear laterocidine (LL-OH, 4) and linear brevicidine (LB-OH, 5) were first synthesized by Fmoc SPPS, starting from 2-chlorotrityl (2-CT) chloride resin. The antibacterial activity of these peptides was then compared to brevicidine (1) and laterocidine (2) using minimum inhibitory concentration (MIC)/microbroth dilution assays (Table 1). The MICs of all peptides were determined against a panel of Gram-negative and Gram-positive ESKAPE pathogens. Additionally, a strain of E. coli carrying the mcr-1 gene was included in the panel. The mcr-1 gene is a transferrable plasmid that confers resistance against colistin, a last-resort antibiotic for Gram-negative infections, by reducing the overall negative charge of lipopolysaccharide (LPS) through modification of lipid A with phosphoethanolamine. The propensity for cationic antibiotics to bind to the cell membrane is therefore reduced. This gene has been observed in more than 27 bacterial species over six continents.[26] The spread of the mcr-1 gene could render colistin ineffectual; therefore, novel antibacterials are urgently required to overcome this form of resistance.
All minimum inhibitory concentrations (MICs) were determined according to Clinical and Laboratory Standards Institute (CLSI) guidelines. Blood agar plates were inoculated with glycerol stocks of E. coli ATCC 25922, K. pneumoniae ATCC 13883, A. baumannii ATCC 17961, P. aeruginosa PAO1, and S. aureus USA300. The inoculated agar plates were then incubated for 16 h at 37 °C. Individually grown colonies were subsequently used to inoculate 5 mL aliquots of TSB that were then incubated at 37 °C with shaking at 220 rpm. E. coli 25922 MCR-1 glycerol stock was used to inoculate 5 mL of TSB supplemented with kanamycin that was then incubated for 16 h at 37 °C with shaking at 220 rpm. The next day the culture was diluted 100-fold in TSB supplemented with kanamycin and incubated at 37 °C with shaking at 220 rpm. In parallel, the lipopeptide antibiotics DMSO stocks to be assessed were serially diluted with MHB in polypropylene 96-well plates (50 μL in each well). Colistin sulfate stocks were dissolved in water before being diluted with MHB. Aliquots of the inoculated TSB were incubated until an OD600 of around 0.5 was reached. The bacterial suspensions were then diluted with MHB (2 × 10^5 CFU/mL) and added to the microplates containing the test compounds (50 μL to each well). The well plates were sealed with an adhesive membrane and after 18 h of incubation at 37 °C with shaking at 600 rpm, the wells were visually inspected for bacterial growth. MIC values reported are based on three technical replicates and defined as the lowest concentration of the compound that prevented visible growth of bacteria.

Structure (SMILES): CCC(C)CCC(=O)N[C@H](CC(N)=O)C(=O)N[C@H](Cc1ccc(O)cc1)C(=O)N[C@H](Cc1c[nH]c2ccccc12)C(=O)N[C@H](CCCN)C(=O)N[C@@H](CCCN)C(=O)NCC(=O)N[C@H](CCCN)C(=O)N[C@@H](Cc1c[nH]c2ccccc12)C(=O)N[C@H](C(=O)N[C@H](C(=O)NCC(=O)N[C@@H](CO)C(N)=O)[C@@H](C)CC)[C@@H](C)O (some centres unmarked) [LB-NH2 (7)] ({Hexanoyl(4ξ-Me)}-[dN][dY][dW][dOrn][Orn]G[dOrn]WTIGS-NH2)
- Antibacterial activity (MIC) E. coli (MCR-1) (E. coli (MCR-1)): 16 µg/mL
- Antibacterial activity (MIC) E. coli ATCC 25922 (E. coli ATCC 25922): 16 µg/mL
- Antibacterial activity (MIC) K. pneumoniae ATCC 13883 (K. pneumoniae ATCC 13883): 16 µg/mL
- Antibacterial activity (MIC) A. baumannii ATCC 17961 (A. baumannii ATCC 17961): 16 µg/mL
- Antibacterial activity (MIC) P. aeruginosa PAO1 (P. aeruginosa PAO1): 4 µg/mL
- Antibacterial activity (MIC) S. aureus USA300 (S. aureus USA300): >32 µg/mL
- fold improvement in activity with respect to C-terminal acids 4 and 5 [1]: 2 fold
- fold reduction in activity compared to parent peptides [1]: 2/4

Structure (SMILES): C=CCOC(=O)NC[C@H](NC(=O)[C@H](Cc1c[nH]c2ccccc12)NC(=O)[C@@H](CCCN)NC(=O)CNC(=O)[C@H](CCCN)NC(=O)[C@@H](CCCN)NC(=O)[C@@H](Cc1c[nH]c2ccccc12)NC(=O)[C@@H](Cc1ccc(O)cc1)NC(=O)[C@@H](CC(N)=O)NC(=O)CCC(C)CC)C(=O)N[C@H](C(=O)NCC(N)=O)[C@@H](C)CC (some centres unmarked) [Δ12LB (Dap[Alloc]9)-NH2 (61)] ({Hexanoyl(4ξ-Me)}-[dN][dY][dW][dOrn][Orn]G[dOrn]W[Dap](Alloc)IG-NH2)
- Antibacterial activity (MIC) E. coli (MCR-1) (E. coli (MCR-1)): 4 µg/mL
- MIC (µg/mL) against E. coli (ATCC 25922) (E. coli ATCC 25922): 4 µg/mL (≈ 2.63 µM)
- Antibacterial activity (MIC) E. coli ATCC 25922 (E. coli ATCC 25922): 4 µg/mL
- Antibacterial activity (MIC) K. pneumoniae ATCC 13883 (K. pneumoniae ATCC 13883): 2 µg/mL
- Antibacterial activity (MIC) A. baumannii ATCC 17961 (A. baumannii ATCC 17961): 2 µg/mL
- Antibacterial activity (MIC) P. aeruginosa PAO1 (P. aeruginosa PAO1): 4 µg/mL
- Antibacterial activity (MIC) S. aureus USA300 (S. aureus USA300): >32 µg/mL
- MIC values, summarised over strains [1]: 2 to 4 µg/mL

Structure (SMILES): CCC(C)CCC(=O)N[C@H](CC(N)=O)C(=O)N[C@H](Cc1ccc(O)cc1)C(=O)N[C@H](Cc1c[nH]c2ccccc12)C(=O)N[C@H](CCCN)C(=O)N[C@@H](CCCN)C(=O)NCC(=O)N[C@H](CCCN)C(=O)N[C@@H](Cc1c[nH]c2ccccc12)C(=O)N[C@@H](Cc1ccccc1)C(=O)N[C@H](C(=O)NCC(N)=O)[C@@H](C)CC (some centres unmarked) [Δ12LB (Phe9)-NH2 (54)] ({Hexanoyl(4ξ-Me)}-[dN][dY][dW][dOrn][Orn]G[dOrn]WFIG-NH2)
- Antibacterial activity (MIC) E. coli (MCR-1) (E. coli (MCR-1)): 2 to 4 µg/mL
- MIC (µg/mL) against E. coli (ATCC 25922) (E. coli ATCC 25922): 4 µg/mL (≈ 2.67 µM)
- Antibacterial activity (MIC) E. coli ATCC 25922 (E. coli ATCC 25922): 2 µg/mL
- Antibacterial activity (MIC) K. pneumoniae ATCC 13883 (K. pneumoniae ATCC 13883): 2 to 4 µg/mL
- Antibacterial activity (MIC) A. baumannii ATCC 17961 (A. baumannii ATCC 17961): 4 µg/mL
- Antibacterial activity (MIC) P. aeruginosa PAO1 (P. aeruginosa PAO1): 4 µg/mL
- Antibacterial activity (MIC) S. aureus USA300 (S. aureus USA300): >32 µg/mL
- MIC values, summarised over strains [1]: 2 to 4 µg/mL

Structure (SMILES): CC[C@H](C)[C@H](NC(=O)[C@@H](NC(=O)[C@H](Cc1c[nH]c2ccccc12)NC(=O)[C@@H](CCCN)NC(=O)CNC(=O)[C@H](CCCN)NC(=O)[C@@H](CCCN)NC(=O)[C@@H](Cc1c[nH]c2ccccc12)NC(=O)[C@@H](Cc1ccc(O)cc1)NC(=O)[C@@H](CO)NC(=O)CCCCCC(C)C)[C@@H](C)O)C(=O)N[C@@H](CC(N)=O)C(=O)NCC(=O)NCC(N)=O [LL-NH2 (6)] ({Octanoyl(7-Me)}-[dS][dY][dW][dOrn][Orn]G[dOrn]WTINGG-NH2)
- Antibacterial activity (MIC) E. coli (MCR-1) (E. coli (MCR-1)): 8 µg/mL
- Antibacterial activity (MIC) E. coli ATCC 25922 (E. coli ATCC 25922): 4 µg/mL
- Antibacterial activity (MIC) K. pneumoniae ATCC 13883 (K. pneumoniae ATCC 13883): 4 to 8 µg/mL
- Antibacterial activity (MIC) A. baumannii ATCC 17961 (A. baumannii ATCC 17961): 8 µg/mL
- Antibacterial activity (MIC) P. aeruginosa PAO1 (P. aeruginosa PAO1): 4 µg/mL
- Antibacterial activity (MIC) S. aureus USA300 (S. aureus USA300): >32 µg/mL
- fold improvement in activity with respect to C-terminal acids 4 and 5 [1]: 2 fold
- fold reduction in activity compared to parent peptides [1]: 2/4
